Source: US5449787A, “N,N'-disubstituted amide derivatives” (Kyorin Pharmaceutical Co., Ltd., priority 1992, dated 1995)
Where a name gives a salt, the structure may show the parent alone.

How the values were obtained:
[1] = biological target: T1, 5-HT3 receptor (Rattus norvegicus, UniProt P35563); assay: 5-HT3 receptor-binding assay using [3H]GR65630 (rat cerebral cortex synaptic membrane); parameters: A crude specimen of synaptic membrane was prepared from the cerebral cortex of rat; from tissue; host or cells: rat cerebral cortex, crude synaptic membrane; details: [3H]GR65630 0.2-0.3 nM, 50 mM HEPES with Triton X-100, 30 minutes at 23° C., nonspecific: 100 μM metoclopramide
T1 sequence (P35563 24-483): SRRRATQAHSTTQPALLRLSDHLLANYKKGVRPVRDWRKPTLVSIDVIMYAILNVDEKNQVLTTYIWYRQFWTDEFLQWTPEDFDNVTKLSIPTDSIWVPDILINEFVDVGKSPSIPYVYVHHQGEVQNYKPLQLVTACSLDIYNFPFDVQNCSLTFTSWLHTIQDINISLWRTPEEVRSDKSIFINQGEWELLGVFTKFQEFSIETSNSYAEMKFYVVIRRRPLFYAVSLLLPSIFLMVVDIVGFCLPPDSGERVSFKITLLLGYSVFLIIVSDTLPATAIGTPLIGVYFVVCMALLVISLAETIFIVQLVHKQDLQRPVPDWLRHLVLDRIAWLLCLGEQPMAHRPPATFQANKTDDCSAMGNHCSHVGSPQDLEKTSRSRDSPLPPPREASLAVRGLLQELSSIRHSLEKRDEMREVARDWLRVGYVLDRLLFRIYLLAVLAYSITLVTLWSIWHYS
Description: (§1) The compound of the present invention has an antagonistic action to 5-HT receptor, in particular, to 5-HT3 receptor. Affinity of the compound of the present invention to 5-HT3 receptor is shown by a receptor-binding assay [refer to Gavin J. Kilpatrick et al, Eur. J. Pharmacol., 159, 157 (1989)] using [^3 H]GR65630 for a tracer legend. Moreover, the antagonistic action to 5-HT3 receptor is shown through inhibition of von Bezold Jarisch reflex caused by intravenously administering 5-HT to rat.
The specific 5-HT3 receptor-binding assay was performed according to the method by G. J. Kilpatrick et al. using [^3 H] GR 65630 as a tracer ligand.
A crude specimen of synaptic membrane was prepared from the cerebral cortex of rat and used for experiment by suspending it into 50 mM IIEPES buffer (pl 7.4) added with Triton X-100.
Next, testing compounds of several kinds of concentration and tritium-labelled GR 65630 (final concentration 0.2-0.3 nM) were added to the suspension of membrane and allowed to react for 30 minutes at 23° C. After the reaction, the reaction mixture was filtered under suction and the filter was washed with 50 mM HEPES buffer. Then, the radioactivity left behind on the filter was determined with a liquid scintillation counter.
The nonspecific binding was determined in the presence of 100 μM metoclopramide.
Then, 50% inhibitory concentration (IC50) of the compounds of Examples 10 through 12 was determined graphically (Table 1).

[2] = biological target: T1, 5-HT3 receptor; assay: Antagonistic action on von Bezold Jarisch reflex; type: in vivo; parameters: Under the anesthetization of rat with urethane/chloralose; from tissue; host or cells: whole anaesthetized rat (in vivo); receptor endogenous, by own knowledge on vagal afferents; details: urethane/chloralose-anesthetized rat, 5-HT 1 mg/kg intravenous; dose of test compound not given
Description: as §1
The antagonistic action of testing compounds to 5-HT3 was assayed according to the method described in Naunyn-Schmiedeberg's Arch. Pharmacol., vol. 326, 36 (1984).
Under the anesthetization of rat with urethane/chloralose, the blood pressure was monitored with hemodynamometer frown carotid arteries and the heart rate was monitored from electrocardiogram.

Row | IC50 [1] | inhibition of reflex bradycardia caused by intravenous 5-HT (von Bezold Jarisch reflex) [2] | SMILES
1 | 1 nM | inhibited the reflex bradycardia | CCN(C)[C@@H]1CN(C(=O)c2nn(C)c3ccccc23)C[C@@H]1C (relative stereo) [Example 10, Cis-3-(N-ethyl-N-methyl)amino-4-methyl-1-(1-methylind-azol-3-ylcarbonyl)pyrrolidine hydrochloride]
2 | 2 nM | inhibited the reflex bradycardia | CCN(C)[C@@H]1CN(C(=O)c2cn(C)c3ccccc23)C[C@@H]1C (relative stereo) [Example 12, Cis-3-(N-ethyl-N-methyl)amino-4-methyl-1-(1-methylindol-3-ylcarbonyl)pyrrolidine hydrochloride]
3 | 3 nM |  | CN(C)C1CCN(C(=O)c2nn(C)c3ccccc23)C1 (centres unmarked) [Example 11, 3-Dimethylamino-(1-methylindazol-3-ylcarbonyl)pyrrolidine hydrochloride]
